Where two headings read alike, the source gives them in different places.
Columns and labels:
Assay type in all cases: cell-based, human
[1] = tested on: PC-3; assay: MTT cytotoxicity assay, prostate carcinoma cells; details: for IC50: Homo sapiens, PC-3, MTT, 48 hrs incubation
Method: The cytotoxic activity of the compounds was tested against different mammalian cancer cells, prostate carcinoma cells (PC-3), hepatocellular carcinoma (HepG2) and colon cancer cells (HCT-116) and against African green monkey kidney cell line (Vero-B). The cell lines were obtained from American Type Culture Collection (ATCC). The cells were cultivated at 37° C. and 10% CO2 in DMEM (Lonza, 12-604F) medium supplemented with 10% fetal bovine serum (FBS, Lonza, Cat. No. 14-801E), 100 IU/ml penicillin and 100 μg/ml streptomycin (Lonza, 17-602E). Cisplatin (cis-diamineplatinum (II) dichloride) was used as a positive control and was obtained from Sigma then dissolved in 0.9% saline then stored as 8 mM stock solution at −20° C. The synthesized compounds were solubilized in DMSO and stored at −20° C. 0.5% crystal violet was prepared in Methanol and was used to stain the viable cells (Feoktistova, Geserick et al. 2016). Crystal violet binds to proteins and DNA in the adherent and viable cells so the stain is an indicator for the viability of the treated cells. The viability of the cells were quantified by using MTT reagent (3-(4,5-dimethylthiazol-2-yl)-2,5-diphenyl tetrazolium bromide), which measure the activity of mitochondrial dehydrogenase in the viable cells (Slater, Sawyer et al. 1963, Mosmann 1983).
Cytotoxicity was further assayed as follows. The cells were seeded in 96-well plate as 5*10^4 cells/mL (100 μL/well). A serial dilutions of tested compounds or cisplatin (100, 30, 10, 3.3, 1.1 or 0.37 μM) was added after overnight incubation of the cells at 37° C. and 5% CO2. DMSO was used as a control (0.1%). The cells were incubated for 48 hrs. After that, 15 μl of MTT (5 mg/mL PBS) was added to each well and incubated for another 4 hours. The formazan crystals were solubilized by 100 μL acidified SDS solution (10% SDS/0.01 M HCl). The absorbance was measured after 14 hours of incubation at 37° C. and 5% CO2 at 570 nm by Biotech plate reader. Each experiment was repeated three times and standard deviation was calculated (±). IC50% was calculated as the concentration that cause 50% inhibition for cell growth. The growth of the cells were monitored and the images were acquired by Gx microscopes (GXMGXD202 Inverted Microscope) (10× Eyepiece) after staining with crystal violet.

[2] = tested on: HCT-116 cells; assay: Colony forming assay; details: HCT-116, 2 μM (method) / 1 μM (result sentence), 10 days, vs DMSO control
Method: HCT-116 cells were seeded in 35 mm cell culture dish (500 cells/ml, 2 ml/dish). After overnight incubation at 37° C. and 5% CO2, the medium was replaced with fresh medium containing either DMSO or 2 μM of 4d. The dishes were returned into the incubator and watched for the formation of single colonies. After 10 days, the experiment was stopped by washing the colonies by ice-cold 1×-PBS and fixed with ice-cold methanol. The colonies were left to air dry, then stained with 0.5% crystal violet. The excess stain was washed off by tap water. The colonies were counted by Gx microscopes (GXMGXD202 Inverted Microscope) (10× Eyepiece) and images were processed by ImageJ 1.47v. The effect of compound 4d on the colony formation of colon cancer cells was evaluated by incubating the cells with 1 μM. […] This confirms the ability of compound 4d to enhance tumor suppressor activities.

[3] = tested on: HCT-116; assay: Cell cycle analysis (propidium iodide flow cytometry); details: HCT-116, 2 μM, 24 hours
Method: The cells (HCT-116) were seeded 5*10^4 cells/mL in a 6-well plate (2 mL/well) and allowed to adhere overnight at 37° C. and 5% CO2. The cells were incubated with or without 2 μM of compound 4d for 24 hours. The cells were washed twice with ice-cold 1×PBS and collected after trypsinzation. The cell pellet was washed two times with ice-cold 1×PBS and fixed with ice-cold 70% ethanol overnight at −20° C. After that, the cells were washed once with ice-cold PBS and the second wash was done with ice-cold PBS-2% FBS. The cell pellet was re-suspended in 500 μL Propidium Iodide (PI)/RNase (BD Biosciences, BDB550825) staining solution for 15 min at room temperature. The samples were incubated for 15 min in the dark and analyzed within 1 hour by BD Accuri™ C6 Plus flow cytometer. […] The arrest of the cell cycle in subG1 indicates the induction of apoptosis.

O=C(/C=C/c1ccc(Cl)cc1Cl)[C@H]1[C@H](c2ccc(Cl)cc2Cl)[C@H]2CSCN2[C@]12C(=O)Nc1ccccc12 [Compound 4d, (3R,6′S,7′R,7a′S)-7′-(2,4-dichlorophenyl)-6′-((E)-3-(2,4-dichlorophenyl)acryloyl)-1′,6′,7′,7a′-tetrahydro-3′H-spiro[indoline-3,5′-pyrrolo[1,2-c]thiazol]-2-one]
IC50 ([1]; read-out: PC-3 (IC50% μM)): 1.8 ± 0.3 µM | IC50 ([1]; read-out: PC-3 (IC50% μg/ml)): 1.1 µg/mL | SI ([1]; Selectivity Index from IC50 normal (VERO-B) and IC50 cancer (PC-3)): 2.778 | formation of colonies [2]: able to inhibit the formation of colonies | cells arrested in G2/M [3]: around 34.5% | cells arrested in subG1 [3]: ~15.5%
